Results on 18 molecules are retold here after US20120101153A1, “ROCAGLAOL DERIVATIVES AS CARDIOPROTECTANT AGENTS AND AS ANTINEOPLASTIC AGENTS” (Universite De Strasbourg, priority 2008, published 2012).

The term pIC50 denotes −log10 of the IC50, conventionally taken in molar units.

The test system of one data set is SK-OV3 cells (OV3). Kind of data set: MTS assay, cytotoxicity, OV3. The conditions noted are these: Homo sapiens, SK-OV-3, read-out: Cytotoxicity (IC50). In general terms: Formazan colour is commonly taken as a measure of viable cells.
In data set [1] the test system is PC3 (prostate adenocarcinoma). Kind of data set: MTS assay, cytotoxicity, PC3. The settings on record: Homo sapiens, read-out: Cytotoxicity (IC50).
Procedure: (§1) The human cell lines HCT116 (colon adenocarcinoma), PC3 (prostate adenocarcinoma) and HCT15 (colon adenocarcinoma) were obtained from ECACC (Wiltshire, UK).
(§2) The cell lines HCT116, HCT15, MCF7, MDA435, MDA231, PC3, OV3, HL60R and HL60 were grown in RPMI medium, in particular supplemented with 10% fetal calf serum, in the presence of penicillin, streptomycin and fungizone in 75 cm^2 flask under 5% CO2.
(§3) Cells were plated in 96-well tissue culture plates in 200 μl medium and cultured during 24 h before to be treated with compounds dissolved in DMSO (compound concentrations at a range of 0.5 nM to 10 μM) using a Biomek 2000 or 3000 (Beckman). Controls received the same volume of DMSO (1% final volume). After a 72 h exposure, MTS reagent (Promega) was added and incubated for 3 h at 37° C. The absorbance was then monitored at 490 nm and results were expressed as the value [1-(OD490 treated/OD490 control)×100] corresponding to the percentage of inhibition of cell proliferation.
The subject of data set [2] is HL60R (resistant HL60 cells). Kind of data set: MTS assay, cytotoxicity, HL60R. The conditions noted are these: Homo sapiens, read-out: Cytotoxicity (IC50).
Procedure: as §2, §3
The test system of data set [3] is MDA435 (breast ductal carcinoma). Kind of data set: MTS assay, cytotoxicity, MDA435. The settings on record: Homo sapiens, MDA435, read-out: Cytotoxicity (IC50).
Procedure: (§4) The human cell lines HL60 (promyeocytic leukaemia), MDA435 (breast ductal carcinoma; ATCC reference HBT129) and MDA231 (breast adenocarcinoma; ATCC reference HBT26) were obtained from ATCC. […] SK-OV3 cells (or OV3, ATCC reference HTB77) were kindly provided by NCI (Frederick, Md.).
(§5) The cell lines HCT116, HCT15, MCF7, MDA435, MDA231, PC3, OV3, HL60R and HL60 were grown in RPMI medium, in particular supplemented with 10% fetal calf serum, in the presence of penicillin, streptomycin and fungizone in 75 cm^2 flask under 5% CO2. […] The medium was changed every 2-3 days.
as §3
Data set [4] deals with MDA231 (breast adenocarcinoma). As to the kind of experiment: MTS assay, cytotoxicity, MDA231. The conditions noted are these: Homo sapiens, MDA-MB-231, read-out: Cytotoxicity (IC50).
Procedure: as §4, §5, §3
The subject of data set [5] is KB (epidermoid carcinoma). As to the kind of experiment: MTS assay, inhibition of cell proliferation, KB. The conditions noted are these: Homo sapiens, read-out: Cytotoxicity (IC50).
Procedure: The human cell lines KB (epidermoid carcinoma) and HepG2 (hepatocarcinoma) were obtained from ECACC (Salisbury, UK) and grown in D-MEM medium supplemented with 10% fetal calf serum, in the presence of penicilline, streptomycine and fungizone in 75 cm^2 flask under 5% CO2.
as §3
Data set [6] deals with HL60 (promyeocytic leukaemia). As to the kind of experiment: MTS assay, inhibition of cell proliferation, HL60.
Procedure: as §4, §5, §3
In data set [7] the test system is HCT116 (colon adenocarcinoma). As to the kind of experiment: MTS assay, inhibition of cell proliferation, HCT116. The conditions noted are these: Homo sapiens, HCT-116, read-out: Cytotoxicity (IC50).
Procedure: as §1, §2, §3
Another data set relates to H9c2 cardiomyocytes. The conditions noted are these: 10 or 100 nM; apoptosis induced by doxorubicin in H9c2 cells. As for the experimental part:
The medium was changed every 2-3 days.
H9c2 cells were plated for 24 h in 100 mm Petri dishes at 0,7×10^4 cells/cm^2. Next, the cells were washed and cultured for 12 h in glucose-free medium (Gibco, DMEM w-L-glutamine, w/o D-glucose, sodium pyruvate) supplemented with only 1% fetal calf serum. […] Cells were washed, and subsequently FACS analyses were performed.
Apoptosis was analysed by fluorescence-activated cell sorting analysis (FACS-Calibur, Becton-Dickinson Biosciences). 0,5×10^6 cells were harvested, washed with Annexin Binding Buffer (0,01 M HEPES, 0,14 M NaCl, 2,5 mM CaCl2) and labeled with annexin V (dilution 1:50) and propidium iodide (6,7 μg/ml). All assays were performed at least in triplicate, and the results were analyzed by BD Cell Quest Pro software (Becton-Dickinson Biosciences, Le Pont De Claix, France).

Where [8] appears, read: Homo sapiens, HL-60, read-out: Cytotoxicity (IC50).
The mark [9] stands for this setting: read-out: Cytotoxicity (IC50), HL60, MTS, Table 2.

SMILES strings stand for the structures. pIC50: −log10 of the molar value. Like-named read-outs stand apart in the source and are kept apart here.

Procedure for SK-OV3 cells (OV3): as §4, §5, §3

Consider `COC(=O)[C@H]1[C@@H](O)[C@@]2(O)c3c(OC)cc(OC)cc3O[C@@]2(c2ccc(Br)cc2)[C@@H]1c1ccccc1` (racemic) [FL10, Methyl 3a-(4-bromophenyl)-1,8b-dihydroxy-6,8-dmethoxy-1-oxo-3-phenyl-2,3-3a,8b-tetrahydro-cyclopenta[b]benzofuran-2-Carboxylate], for which the pIC50 in the data set with SK-OV3 cells (OV3) was 7.68; in [1], 7.54; in data set [2], 7.85; in [3], 7.82; in data set [4] it was 8.06; in data set [5], 7.62. Further, the negative logarithm of the IC50 (pIC50) in data set [6] (setting [8]) is 7.85; in data set [7], 7.74.
As to `COC(=O)[C@H]1[C@@H](O)[C@@]2(O)c3ccc(OCCCO)cc3O[C@@]2(c2ccc(OC)cc2)[C@@H]1c1ccccc1` (racemic) [FL11], the “Activity for cytotoxicity and cardioprotection (FIG. 13)” value in the data set on H9c2 cardiomyocytes is on record as “no or weak such activity”. Moreover, the pIC50 in the data set on SK-OV3 cells (OV3) was 5.84; in data set [1] it was 5.60; in [2] it was 5.89; in [3], 5.95; in data set [4] it was 5.97; in data set [5], 5.77. The values for the pIC50 in [6] (setting [8]) and in data set [7] were 5.95 and 5.85, respectively.
On to `COC(=O)[C@H]1[C@@H](O)[C@@]2(O)c3ccc(OC)cc3O[C@@]2(c2ccc(Br)cc2)[C@@H]1c1ccccc1` (racemic) [FL5, Methyl 3a-(4-bromophenyl)-1,8b-dihydroxy-8-methoxy-1-oxo-3-phenyl-2,3-3a,8b-tetrahydro-cyclopenta[b]benzofuran-2-carboxylate], for which the negative logarithm of the IC50 (pIC50) with SK-OV3 cells (OV3) is 7.00; in data set [1], 6.76; in [2], 7.36; in data set [3] it was 7.19; in [4], 7.57; in data set [5], 6.78. In addition, the pIC50 is 7.19 in data set [6] (setting [8]) and 7.02 in data set [7].
On to `CC[C@]1(O)C[C@@H]2CN(CCc3c([nH]c4ccccc34)[C@@](C(=O)OC)(c3cc4c(cc3OC)N(C)[C@H]3[C@@](O)(C(=O)OC)[C@H](OC(C)=O)[C@]5(CC)C=CCN6CC[C@]43[C@@H]65)C2)C1` [Vinblastin, vinblastine, reference compound], for which the pIC50 was 8.57 in the data set with SK-OV3 cells (OV3); 8.26 in data set [1]; < 7.00 in data set [2]; 8.91 in [3]; 9.20 in [4]; 9.10 in [5]. Further, the pIC50 in data set [6] (setting [8]) is 8.95; in [7], 8.85.
Consider `COc1cc(OC)c2c(c1)O[C@@]1(c3ccc(Br)cc3)[C@H](c3ccccc3)[C@@H](C(=O)N(C)C)[C@@H](O)[C@@]21O` (racemic) [FL12, 3a-(4-Bromophenyl)-1,8b-dihydroxy-6,8-dimethoxy-N,N-dimethyl-1-oxo-3-phenyl-2,3-3a,8b-tetrahydro-cyclopenta[b]benzofuran-2-carboxamide], for which the pIC50 with SK-OV3 cells (OV3) was 8.17; in data set [1] it was 8.14; in data set [2], 7.92; in data set [3], 8.49; in data set [4], 8.57; in data set [5] it was 8.15. The negative logarithm of the IC50 (pIC50) in data set [6] (setting [8]) is 8.40; in data set [7], 8.23.
Consider `COC(=O)[C@H]1[C@@H](O)[C@@]2(O)c3c(OC)cc(OC)cc3O[C@@]2(c2ccc(OC)cc2)[C@@H]1c1cccc(F)c1` (racemic) [FL16, Methyl 3a-(4-methoxyphenyl)-1,8b-dihydroxy-6,8-dimethoxy-1-oxo-3-(3-fluorophenyl)-2,3-3a,8b-tetrahydro-cyclopenta[b]benzofuran-2-carboxylate], for which the pIC50 in [5] was 7.55.
For `CNC(=O)[C@H]1[C@@H](O)[C@@]2(O)c3c(OC)cc(OC)cc3O[C@@]2(c2ccc(Br)cc2)[C@@H]1c1ccccc1` (racemic) [FL13, 3a-(4-Bromophenyl)-1,8b-dihydroxy-6,8-dimethoxy-N-methyl-1-oxo-3-phenyl-2,3-3a,8b-tetrahydro-cyclopenta[b]benzofuran-2-carboxamide], the pIC50 in the data set on SK-OV3 cells (OV3) is 8.42; in data set [1] it was 8.48; in data set [2] it was 7.80; in data set [3], 8.59; in data set [4], 8.72; in data set [5], 8.40. The figures for the pIC50 in data set [6] (setting [8]) and in data set [7] were 8.70 and 8.42, respectively.
In the case of `CC(=O)O[C@@]12CO[C@@H]1C[C@H](O)[C@@]1(C)C(=O)[C@H](O)C3=C(C)[C@@H](OC(=O)[C@H](O)[C@@H](NC(=O)OC(C)(C)C)c4ccccc4)C[C@@](O)([C@@H](OC(=O)c4ccccc4)[C@H]21)C3(C)C` [Taxotere, reference compound], the pIC50 was 9.29 in the data set with SK-OV3 cells (OV3); 8.85 in data set [1]; 6.27 in data set [2]; 9.60 in data set [3]; 10.74 in [4]; 9.77 in data set [5]. Besides, the pIC50 in [6] (setting [8]) is 9.30; in [7], 9.28.
Regarding `CCC(=O)O[C@@H]1C[C@@H](c2ccccc2)[C@]2(c3ccc(Br)cc3)Oc3cc(OC)cc(OC)c3[C@]12O` (racemic) [FL21, 3a-(4-Bromophenyl)-6,8-dimethoxy-3-phenyl-1,2,3,3a-tetrahydro-cyclopenta[b]benzofuran-1,8b(1H)-diol 1-propionate], the pIC50 in [6] (setting [8]) was 7.30.
Turning to `COc1cc(OC)c2c(c1)OC1(c3ccc(Br)cc3)C(c3ccccc3)CC(NS(C)(=O)=O)C21O` (stereo not drawn) [FL25, 3a-(4-Bromophenyl)-6,8-dimethoxy-8b-hydroxy-3-phenyl-1,2,3,3a-tetrahydro-cyclopenta[b]benzofuran-1,8b(1H)-methanesulfonamide], in data set [6] (setting [9]), the pIC50 was 7.80.
`COc1cc(OC)c2c(c1)OC1(c3ccc(Br)cc3)C(c3ccccc3)CC(NC=O)C21O` (stereo not drawn) [FL22, 3a-(4-Bromophenyl)-6,8-dimethoxy-8b-hydroxy-3-phenyl-1,2,3,3a-tetrahydro-cyclopenta[b]benzofuran-1,8b(1H)-formamide]: in [6] (setting [9]), the negative logarithm of the IC50 (pIC50) was 7.36.
Take `COc1cc(OC)c2c(c1)O[C@@]1(c3ccc(Br)cc3)[C@H](c3ccccc3)[C@@H](C(N)=O)[C@@H](O)[C@@]21O` (racemic) [FL14, 3a-(4-Bromophenyl)-1,8b-dihydroxy-6,8-dimethoxy-1-oxo-3-phenyl-2,3-3a,8b-tetrahydro-cyclopenta[b]benzofuran-2-carboxamide]: the pIC50 in the data set on SK-OV3 cells (OV3) is 8.68; in [1], 8.43; in data set [2], 7.74; in data set [3] it was 8.82; in data set [4], 9.00; in [5] it was 8.70. Besides, the pIC50 in [6] (setting [8]) is 9.00; in data set [7], 8.74.
As to `COc1cc(OC)c2c(c1)O[C@@]1(c3ccc(Br)cc3)[C@H](c3ccccc3)C[C@@H](OC(C)=O)[C@@]21O` (racemic) [FL20, 3a-(4-Bromophenyl)-6,8-dimethoxy-3-phenyl-1,2,3,3a-tetrahydro-cyclopenta[b]benzofuran-1,8b(1H)-diol 1-acetate], the negative-log IC50 (pIC50) in data set [6] (setting [8]) is 7.40.
As for `COc1ccc([C@@]23Oc4cc(OC)cc(OC)c4[C@]2(O)[C@H](O)C[C@H]3c2cccc(F)c2)cc1` (racemic) [FL15, 3a-(4-methoxyphenyl)-6,8-dimethoxy-3-(3-fluorophenyl)-1,2,3,3a-tetrahydro-cyclopenta[b]benzofuran-1,8b(1H)-diol], in [5], the pIC50 was 7.22.
For `COc1cc(OC)c2c(c1)OC1(c3ccc(Br)cc3)C(c3ccccc3)CC(NS(C)(=O)=O)C21O` (stereo not drawn) [FL24, 3a-(4-Bromophenyl)-6,8-dimethoxy-8b-hydroxy-3-phenyl-1,2,3,3a-tetrahydro-cyclopenta[b]benzofuran-1,8b(1H)-methanesulfonamide], in data set [6] (setting [9]), the pIC50 was 6.24.
Take `COc1cc(OC)c2c(c1)OC1(c3ccc(Br)cc3)C(c3ccccc3)CC(NC=O)C21O` (stereo not drawn) [FL23, 3a-(4-Bromophenyl)-6,8-dimethoxy-8b-hydroxy-3-phenyl-1,2,3,3a-tetrahydro-cyclopenta[b]benzofuran-1,8b(1H)-formamide]: the pIC50 in data set [6] (setting [9]) is 8.70.
For the molecule `COc1cc(OC)c2c(c1)O[C@@]1(c3ccc(Br)cc3)[C@H](c3cccc(F)c3)[C@@H](C(N)=O)[C@@H](O)[C@@]21O` (racemic) [FL18, 3a-(4-Bromophenyl)-1,8b-dihydroxy-6,8-dimethoxy-1-oxo-3-(3-fluorophenyl)-2,3-3a,8b-tetrahydro-cyclopenta[b]benzofuran-2-carboxamide], the pIC50 in [5] is 7.85.
Take `COc1cc(OC)c2c(c1)O[C@@]1(c3ccc(Br)cc3)[C@H](c3ccccc3)C[C@@H](OC=O)[C@@]21O` (racemic) [FL19, 3a-(4-Bromophenyl)-6,8-dimethoxy-3-phenyl-1,2,3,3a-tetrahydro-cyclopenta[b]benzofuran-1,8b(1H)-diol 1-formate]: in [6] (setting [8]), the pIC50 is 8.15.
